Reference: patent US8309586B2, “Glucokinase activators and pharmaceutical compositions containing the same as an active ingredient” (LG Life Sciences Ltd., priority 2007, dated 2012)

Test system: Glucokinase known as hexokinase IV (human GK isoform 1, pancreas form and human GK isoform 2, liver form)
Assay: Glucokinase enzymatic activity assay (G6PDH-coupled, NADH absorbance at 340 nm)
Assay type: biochemical
Conditions: 5 mM glucose, 1 mM ATP, 37 nM GK, 10 min at room temperature
How it was run: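 His-tagged human GK isoform 1 (pancreas) or 2 (liver), E. coli-expressed and Ni-purified, 37 nM, with 5 mM glucose, 1 mM ATP, 1 mM NAD and G6PDH in 25 mM Hepes/KCl, 2 mM MgCl2, 1 mM DTT. Ran 10 min at room temperature, read as NADH at 340 nm. AC1.5 is the compound concentration giving 1.5-fold activity.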

| Compound | AC1.5 (the compound concentration at which the enzymatic activity is increased by 1.5 times) [nM] |
| --- | --- |
| OC[C@@H]1CSC(c2cc3cc(Br)cc(NC4CCOCC4)c3[nH]2)=N1 [Example 11, {(R)-2-[5-bromo-7-(tetrahydro-pyran-4-ylamino)-1H-indol-2-yl]-4,5-dihydro-thiazol-4-yl}-methanol] | 14 |
| O=C(C[C@@H]1CSC(c2cc3cc(F)cc(NC4CCCC4)c3[nH]2)=N1)NCCN1CCOCC1 [Example 85, 2-[(R)-2-(7-cyclopentylamino-5-fluoro-1H-indol-2-yl)-4,5-dihydro-thiazol-4-yl]-N-(2-morpholin-4-yl-ethyl)-acetamide] | 18 |
| OC[C@@H]1CSC(c2cc3cc(Oc4cccnc4)cc(NC4CCOCC4)c3[nH]2)=N1 [Example 14, {(R)-2-[5-(pyridin-3-yloxy)-7-(tetrahydro-pyran-4-ylamino)-1H-indol-2-yl]-4,5-dihydro-thiazol-4-yl}-methanol] | 8 |
| OC[C@@H]1CSC(c2cc3cc(Br)cc(NC4CCCC4)c3[nH]2)=N1 [Example 10, [(R)-2-(5-bromo-7-cyclopentylamino-1H-indol-2-yl)-4,5-dihydro-thiazol-4-yl]-methanol] | 6 |
| CCOC(=O)CC[C@@H]1CSC(c2cc3cc(OCC)cc(NC4CCCC4)c3[nH]2)=N1 [Example 166, 3-[(R)-2-(7-cyclopentylamino-5-ethoxy-1H-indol-2-yl)-4,5-dihydro-thiazol-4-yl]-propionic acid ethyl ester] | 43 |
| CC(=O)N1CCN(CC[C@@H]2CSC(c3cc4cc(F)cc(NC5CCCC5)c4[nH]3)=N2)CC1 [Example 125, 1-(4-{2-[(R)-2-(7-cyclopentylamino-5-fluoro-1H-indol-2-yl)-4,5-dihydro-thiazol-4-yl]-ethyl}-piperazin-1-yl)-ethanone] | 23 |
| COC(=O)C[C@@H]1CSC(c2cc3cc(Cl)cc(NC4CCCC4)c3[nH]2)=N1 [Example 26, [(R)-2-(5-chloro-7-cyclopentylamino-1H-indol-2-yl)-4,5-dihydro-thiazol-4-yl]acetic acid methyl ester] | 7 |
| COc1cc(NC2CCCC2)c2[nH]c(C3=N[C@H](CO)CS3)cc2c1 [Example 12, [(R)-2-(7-cyclopentylamino-5-methoxy-1H-indol-2-yl)-4,5-dihydro-thiazol-4-yl]-methanol] | 25 |
| OCC[C@@H]1CSC(c2cc3cc(F)cc(NC4CCOCC4)c3[nH]2)=N1 [Example 41, 2-{(R)-2-[5-fluoro-7-(tetrahydro-pyran-4-ylamino)-1H-indol-2-yl]-4,5-dihydro-thiazol-4-yl}-ethanol] | 17 |
| CCNC(=O)C[C@@H]1CSC(c2cc3cccc(NC4CCCC4)c3[nH]2)=N1 [Example 89, 2-[(R)-2-(7-cyclopentylamino-1H-indol-2-yl)-4,5-dihydro-thiazol-4-yl]-N-ethyl-acetamide] | 32 |
| CS(=O)(=O)Cc1cc(NC2CCCC2)c2[nH]c(C3=N[C@H](CC(=O)O)CS3)cc2c1 [Example 69, [(R)-2-(7-cyclopentylamino-5-methanesulfonylmethyl-1H-indol-2-yl)-4,5-dihydro-thiazol-4-yl]-acetic acid] | 64 |
| OC[C@@H]1CSC(c2cc3cc(Cl)cc(NC4CCCC4)c3[nH]2)=N1 [Example 7, [(R)-2-(5-chloro-7-cyclopentylamino-1H-indol-2-yl)-4,5-dihydro-thiazol-4-yl]-methanol] | 7 |
| CNC(=O)C[C@@H]1CSC(c2cc3cccc(NC4CCOCC4)c3[nH]2)=N1 [Example 92, N-methyl-2-{(R)-2-[7-(tetrahydro-pyran-4-ylamino)-1H-indol-2-yl]-4,5-dihydro-thiazol-4-yl}-acetamide] | 112 |
| CCOC(=O)CC[C@@H]1CSC(c2cc3cc(OC(F)(F)F)cc(NC4CCCC4)c3[nH]2)=N1 [Example 168, 3-[(R)-2-(7-cyclopentylamino-5-trifluoromethoxy-1H-indol-2-yl)-4,5-dihydro-thiazol-4-yl]-propionic acid ethyl ester] | 15 |
| Cc1ncn(CC[C@@H]2CSC(c3cc4cc(Cl)cc(NC5CCCC5)c4[nH]3)=N2)c1C(=O)O [Example 110, 3-{2-[(R)-2-(5-chloro-7-cyclopentylamino-1H-indol-2-yl)-4,5-dihydro-thiazol-4-yl]-ethyl}-5-methyl-3H-imidazole-4-carboxylic acid] | 30 |
| CN(C)CC[C@@H]1CSC(c2cc3cccc(NC4CCCC4)c3[nH]2)=N1 [Example 142, cyclopentyl-{2-[(R)-4-(2-dimethylamino-ethyl)-4,5-dihydro-thiazol-2-yl]-1H-indol-7-yl}-amine] | 85 |
| O=C(C[C@@H]1CSC(c2cc3cc(Cl)cc(NC4CCCC4)c3[nH]2)=N1)NCCN1CCOCC1 [Example 74, 2-[(R)-2-(5-chloro-7-cyclopentylamino-1H-indol-2-yl)-4,5-dihydro-thiazol-4-yl]-N-(2-morpholin-4-yl-ethyl)-acetamide] | 14 |
| OC[C@@H]1CSC(c2cc3cc(F)cc(NC4CCCC4)c3[nH]2)=N1 [Example 5, [(R)-2-(7-cyclopentylamino-5-fluoro-1H-indol-2-yl)-4,5-dihydro-thiazol-4-yl]-methanol] | 7 |
| Clc1cc(NC2CCCC2)c2[nH]c(C3=N[C@H](CCN4CCCCC4)CS3)cc2c1 [Example 104, {5-chloro-2-[(R)-4-(2-piperidin-1-yl-ethyl)-4,5-dihydro-thiazol-2-yl]-1H-indol-7-yl}-cyclopentyl-amine] | 13 |
| COC(=O)C[C@@H]1CSC(c2cc3cc(Cl)cc(NC4CCOCC4)c3[nH]2)=N1 [Example 30, {(R)-2-[5-chloro-7-(tetrahydro-pyran-4-ylamino)-1H-indol-2-yl]-4,5-dihydro-thiazol-4-yl}acetic acid methyl ester] | 28 |
| O=C(CO)N1CCN(CC[C@@H]2CSC(c3cc4cc(F)cc(NC5CCCC5)c4[nH]3)=N2)CC1 [Example 131, 1-(4-{2-[(R)-2-(7-cyclopentylamino-5-fluoro-1H-indol-2-yl)-4,5-dihydro-thiazol-4-yl]-ethyl}-piperazin-1-yl)-2-hydroxy-ethanone] | 10 |
| CCOC(=O)CC[C@@H]1CSC(c2cc3cc(C)cc(NC4CCCC4)c3[nH]2)=N1 [Example 157, 3-[(R)-2-(7-cyclopentylamino-5-methyl-1H-indol-2-yl)-4,5-dihydro-thiazol-4-yl]-propionic acid ethyl ester] | 24 |
